Measured values published in US11564913B2, “Compositions and methods for treating cancer” (Children's Hospital Medical Center, priority 2019, dated 2023).

Assays:
[1] = target: Vav3 binding to Rac in empty vector Ba/F3 cells (Mus musculus, UniProt Q9R0C8); test: GST-Rac pull-down, immunoblot for pVav3; assay type: cell-based, murine; conditions: 3 μM, 30 min
Protocol: (§1) FIG. 14: IODVA1 targets Vav3 in vitro and in vivo. (A) Ba/F3 cells expressing empty vector Mieg3 or p190-BCR-ABL1 were treated with vehicle control or IODVA1 (IO1, 3 μM) for 30 min and incubated with GST-Rac and glutathione beads. Beads were washed and the protein complexes were separated on SDS-PAGE and immunoblotted for pVav3. Input Vav3 was used as control. (B) Binding affinity (Kd) between IODVA1 and Vav3 (green), LARG (brown), and RacGDP (blue). […] Error bars=SD; N=3. (C) Quantification of the average number of colonies made by bone marrow wild-type (black) and Vav3^−/− (lilac) p190-BCR-ABL1 leukemic cells treated with vehicle control or IODVA1 (IO1, 1 and 3 μM) (* p≤0.05; ** p≤0.01; *** p≤0.001; ns, not significant). (D) Representative histogram data of the cell cycle analysis of wild-type (black and grey bars) and Vav3^−/− (dark and light lilac) bone marrow cells expressing p190-BCR-ABL and treated with vehicle control or IODVA1 (IO1, 3 μM) for 20 h. (E) Quantification by densitometry of the pVav3 band from FIG. 14A. […]
(§2) Rac activity and signaling is regulated by GAPs, GDIs, and RacGEFs. […] The pull-down protein complex was separated on SDS-PAGE and immunoblotted for pVav3 and Vav3 and quantified (FIGS. 14A & 14E). […]

[2] = target: Vav3 binding to Rac in p190-BCR-ABL Ba/F3 cells (Mus musculus, UniProt Q9R0C8); test: GST-Rac pull-down, immunoblot for pVav3; assay type: cell-based, murine; conditions: 3 μM, 30 min
Protocol: as §1, §2

[3] = tested on: MCF7, T47D, and MDA-MB-231 cells; test: Spheroid formation in ultra-low attachment plates, live cell count; assay type: cell-based; conditions: 0-3 μM, 5 days
Protocol: FIG. 6: IODVA1 inhibits cell-substratum and cell-cell interactions. (A) IODVA1 impedes spreading of MCF7 and MDA-MB-231 cells on fibronectin. MCF7, T47D, and MDA-MB-231 cells were incubated on fibronectin coated coverslips for 10 min, then further incubated with the indicated concentrations of IODVA1 for 30 min in serum-free media, fixed and observed by bright field microscopy. Areas of single cells were calculated from 6 random fields (no less than 300 cells total per treatment group). Results shown are mean±s.e.m. of a single experiment and are representative of three independent experiments. (B) Effects of IODVA1 treatment on spheroid formation in MCF10A, MCF7, T47D, and MDA-MB-231 cells. […] Aggregates and spheroids were dissociated with accutase and trituration, and the number of live cells was determined by trypan blue exclusion. […]
For the spheroid formation in the ultra-low attachment plates, MCF7, T47D, and MDA-MB-231 (5,000 cells) were incubated in complete media with IODVA1 at 0-3 μM for 5 days. Aggregates and spheroids were dissociated with Accutase and live cells were counted using trypan blue exclusion.
Spheroids were formed by the hanging drop method or using ultra-low attachment (ULA) plates (Corning). […] Spheroid formation was monitored daily and imaged using EVOS microscope (Life Technologies). […]

Sequence of Vav3 binding to Rac in p190-BCR-ABL Ba/F3 cells (Q9R0C8 whole entry): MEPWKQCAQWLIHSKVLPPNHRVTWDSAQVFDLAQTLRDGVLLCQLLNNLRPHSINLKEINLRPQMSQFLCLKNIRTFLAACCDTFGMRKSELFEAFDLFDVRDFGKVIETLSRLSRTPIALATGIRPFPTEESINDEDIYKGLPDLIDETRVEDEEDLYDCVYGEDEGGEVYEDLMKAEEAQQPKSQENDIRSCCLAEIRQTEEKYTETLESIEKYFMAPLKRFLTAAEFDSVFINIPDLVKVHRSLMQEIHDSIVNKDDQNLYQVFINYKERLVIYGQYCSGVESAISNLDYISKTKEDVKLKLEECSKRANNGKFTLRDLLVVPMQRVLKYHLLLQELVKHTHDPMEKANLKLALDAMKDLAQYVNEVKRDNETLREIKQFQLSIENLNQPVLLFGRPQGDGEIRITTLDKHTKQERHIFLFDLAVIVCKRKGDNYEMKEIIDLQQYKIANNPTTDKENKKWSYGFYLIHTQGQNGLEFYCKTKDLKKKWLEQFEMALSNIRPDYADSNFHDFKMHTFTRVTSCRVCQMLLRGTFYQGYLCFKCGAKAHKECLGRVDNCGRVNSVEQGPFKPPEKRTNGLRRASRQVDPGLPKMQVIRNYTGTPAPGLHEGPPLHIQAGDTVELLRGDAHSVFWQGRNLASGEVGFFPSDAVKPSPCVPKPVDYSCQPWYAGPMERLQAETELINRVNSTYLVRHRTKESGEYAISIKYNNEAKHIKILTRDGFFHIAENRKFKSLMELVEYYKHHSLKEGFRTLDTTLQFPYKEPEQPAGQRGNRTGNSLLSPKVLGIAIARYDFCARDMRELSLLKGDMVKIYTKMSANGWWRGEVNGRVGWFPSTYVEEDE
Sequence of Vav3 binding to Rac in empty vector Ba/F3 cells (Q9R0C8 whole entry): as above

OC1(c2ccccn2)N=C(Nc2nc3ccccc3[nH]2)N=C1c1ccccn1 (stereo not drawn) [IODVA1, (Z)-2-((1H-benzo[d]imidazol-2-yl)imino)-4,5-di(pyridin-2-yl)-2,5-dihydro-1H-imidazol-5-ol] was tested, and the “Vav3 or pVav3 bound to Rac” value [1] was “no significant change”, the “decrease in intensity of pVav3 band bound to Rac” value [2] was 8 times and the “number of live cells in a spheroid” value [3] was “significantly decreased”.
